Organism: Rattus norvegicus
Experiment: Open TG-GATES - Regimen: Single
Format: toxicity, organism-based, Sprague-Dawley
Set-up: regimen Single, gender Male, age 6 weeks
Settings: in vivo, po, 0 mg/kg, route gavage, dose level Control; for APTT / Bas / Eos / Fbg / Hb / Ht / Lym / MCH / MCHC / MCV / Mono / Neu / PT / Plat / RBC / Ret / WBC: tissue Blood; for KIDNEY_L / KIDNEY_R / KIDNEY_TOTAL: tissue Kidney; for LIVER: tissue Liver; for A/G / ALP / ALT / AST / BUN / CRE / Ca / Cl / DBIL / GLC / IP / K / LDH / Na / PL / RALB / TBIL / TC / TG / TP / gamma-GTP: tissue Plasma

SMILES: C[C@H]1C(=O)O[C@@H]2CCN3CC=C(COC(=O)[C@](C)(O)[C@]1(C)O)[C@H]23 [MONOCROTALINE]
- TERMINAL_BW (3 h): 217.7 g
- APTT (3 h): 20.3 s
- Bas (3 h): 0%
- Eos (3 h): 0.8%
- Fbg (3 h): 316 mg/dL
- Hb (3 h): 12.9 g/dL
- Ht (3 h): 37.7%
- Lym (3 h): 76.4%
- MCH (3 h): 21.8 pg
- MCHC (3 h): 34.2%
- MCV (3 h): 63.8 fL
- Mono (3 h): 3.2%
- Neu (3 h): 19%
- PT (3 h): 16.8 s
- Plat (3 h): 116.9 x10_4/uL
- RBC (3 h): 591.6 x10_4/ul
- Ret (3 h): 9.3%
- WBC (3 h): 86.4 x10_2/uL
- KIDNEY_L (3 h): 1 g
- KIDNEY_R (3 h): 1 g
- KIDNEY_TOTAL (3 h): 2 g
- LIVER (3 h): 10.4 g
- A/G (3 h): 1.3
- ALP (3 h): 1563.2 IU/L
- ALT (3 h): 38 IU/L
- AST (3 h): 66.8 IU/L
- BUN (3 h): 13.4 mg/dL
- CRE (3 h): 0.2 mg/dL
- Ca (3 h): 10.7 mg/dL
- Cl (3 h): 106.6 meq/L
- DBIL (3 h): 0.002 mg/dL
- GLC (3 h): 185.6 mg/dL
- IP (3 h): 8.3 mg/dL
- K (3 h): 4 meq/L
- LDH (3 h): 161 IU/L
- Na (3 h): 142.6 meq/L
- PL (3 h): 141.8 mg/dL
- RALB (3 h): 3.1 g/dL
- TBIL (3 h): 0.028 mg/dL
- TC (3 h): 78.2 mg/dL
- TG (3 h): 58.6 mg/dL
- TP (3 h): 5.4 g/dL
- gamma-GTP (3 h): 1 IU/L
- TERMINAL_BW (6 h): 200.2 g
- APTT (6 h): 20.2 s
- Bas (6 h): 0%
- Eos (6 h): 1%
- Fbg (6 h): 316 mg/dL
- Hb (6 h): 13.4 g/dL
- Ht (6 h): 39.5%
- Lym (6 h): 81%
- MCH (6 h): 21.5 pg
- MCHC (6 h): 33.9%
- MCV (6 h): 63.2 fL
- Mono (6 h): 2.8%
- Neu (6 h): 14.8%
- PT (6 h): 16.2 s
- Plat (6 h): 112.4 x10_4/uL
- RBC (6 h): 626.4 x10_4/ul
- Ret (6 h): 7.8%
- WBC (6 h): 94 x10_2/uL
- KIDNEY_L (6 h): 0.9 g
- KIDNEY_R (6 h): 0.9 g
- KIDNEY_TOTAL (6 h): 1.9 g
- LIVER (6 h): 8.5 g
- A/G (6 h): 1.3
- ALP (6 h): 1365.8 IU/L
- ALT (6 h): 37.6 IU/L
- AST (6 h): 71.6 IU/L
- BUN (6 h): 11.4 mg/dL
- CRE (6 h): 0.1 mg/dL
- Ca (6 h): 10.6 mg/dL
- Cl (6 h): 106.8 meq/L
- DBIL (6 h): 0.004 mg/dL
- GLC (6 h): 176 mg/dL
- IP (6 h): 9 mg/dL
- K (6 h): 4.2 meq/L
- LDH (6 h): 230.6 IU/L
- Na (6 h): 142.6 meq/L
- PL (6 h): 132.4 mg/dL
- RALB (6 h): 3.1 g/dL
- TBIL (6 h): 0.026 mg/dL
- TC (6 h): 75.2 mg/dL
- TG (6 h): 56 mg/dL
- TP (6 h): 5.5 g/dL
- gamma-GTP (6 h): 1.2 IU/L
- TERMINAL_BW (9 h): 207.2 g
- APTT (9 h): 19.8 s
- Bas (9 h): 0%
- Eos (9 h): 1%
- Fbg (9 h): 300.8 mg/dL
- Hb (9 h): 13.3 g/dL
- Ht (9 h): 38.8%
- Lym (9 h): 73%
- MCH (9 h): 21.4 pg
- MCHC (9 h): 34.2%
- MCV (9 h): 62.7 fL
- Mono (9 h): 2.6%
- Neu (9 h): 22.4%
- PT (9 h): 16.2 s
- Plat (9 h): 110.9 x10_4/uL
- RBC (9 h): 618.6 x10_4/ul
- Ret (9 h): 8.7%
- WBC (9 h): 92.3 x10_2/uL
- KIDNEY_L (9 h): 0.9 g
- KIDNEY_R (9 h): 1 g
- KIDNEY_TOTAL (9 h): 1.9 g
- LIVER (9 h): 8.6 g
- A/G (9 h): 1.3
- ALP (9 h): 1373.4 IU/L
- ALT (9 h): 38 IU/L
- AST (9 h): 67.8 IU/L
- BUN (9 h): 10.4 mg/dL
- CRE (9 h): 0.2 mg/dL
- Ca (9 h): 10.4 mg/dL
- Cl (9 h): 106.8 meq/L
- DBIL (9 h): 0.004 mg/dL
- GLC (9 h): 174.2 mg/dL
- IP (9 h): 9.1 mg/dL
- K (9 h): 4.1 meq/L
- LDH (9 h): 184.2 IU/L
- Na (9 h): 142 meq/L
- PL (9 h): 137 mg/dL
- RALB (9 h): 3.1 g/dL
- TBIL (9 h): 0.028 mg/dL
- TC (9 h): 83.2 mg/dL
- TG (9 h): 50.4 mg/dL
- TP (9 h): 5.4 g/dL
- gamma-GTP (9 h): 1 IU/L
- TERMINAL_BW (24 h): 221.9 g
- APTT (24 h): 22 s
- Bas (24 h): 0%
- Eos (24 h): 1%
- Fbg (24 h): 299 mg/dL
- Hb (24 h): 12.9 g/dL
- Ht (24 h): 37.9%
- Lym (24 h): 83%
- MCH (24 h): 20.8 pg
- MCHC (24 h): 34.1%
- MCV (24 h): 61.1 fL
- Mono (24 h): 2.8%
- Neu (24 h): 12.6%
- PT (24 h): 16.5 s
- Plat (24 h): 119.4 x10_4/uL
- RBC (24 h): 620.4 x10_4/ul
- Ret (24 h): 8.4%
- WBC (24 h): 85.2 x10_2/uL
- KIDNEY_L (24 h): 1 g
- KIDNEY_R (24 h): 1 g
- KIDNEY_TOTAL (24 h): 2 g
- LIVER (24 h): 10.5 g
- A/G (24 h): 1.3
- ALP (24 h): 1787.6 IU/L
- ALT (24 h): 44.4 IU/L
- AST (24 h): 74 IU/L
- BUN (24 h): 18.4 mg/dL
- CRE (24 h): 0.2 mg/dL
- Ca (24 h): 10.7 mg/dL
- Cl (24 h): 105 meq/L
- DBIL (24 h): 0.006 mg/dL
- GLC (24 h): 187.6 mg/dL
- IP (24 h): 6.8 mg/dL
- K (24 h): 4.2 meq/L
- LDH (24 h): 227.2 IU/L
- Na (24 h): 141.2 meq/L
- PL (24 h): 150.4 mg/dL
- RALB (24 h): 3.2 g/dL
- TBIL (24 h): 0.008 mg/dL
- TC (24 h): 78.2 mg/dL
- TG (24 h): 101.6 mg/dL
- TP (24 h): 5.6 g/dL
- gamma-GTP (24 h): 1 IU/L
